Format in all cases: in vivo
Experiment [1] concerns goosegrass (Eleusine indica). As to the kind of experiment: Test C preemergence, goosegrass. The note with it: 0 is no effect, 100 is complete control. Summed up: (§1)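 Pre: soil sprayed at seeding. Post: seedlings treated at 1–2 leaves (2–10 cm). Vehicle non-phytotoxic solvent mix with surfactant; loam–sand medium; greenhouse; visual injury read at 10 or 12 days, scale 0–100.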

The test system of experiment [2] is soybean (Glycine max). The experiment can be described thus: Test C preemergence, soybean. As to conditions: 0 is no effect, 100 is complete control. Summed up: as §1
Experiment [3] relates to galium (catchweed bedstraw, Galium aparine). The experiment can be described thus: Test C postemergence, galium. The note with it: for Galium plant response rating: 31 g ai/ha Postemergence, visual injury, 0 to 100 scale (0 no effect, 100 complete control); for Plant response rating (0 to 100 scale), Galium: 125 g ai/ha Postemergence, 0 is no effect, 100 is complete control.

The subject of experiment [4] is blackgrass (Alopecurus myosuroides). As to the kind of experiment: Test C postemergence, blackgrass. As to conditions: 125 g ai/ha Postemergence; 0 is no effect, 100 is complete control.

As to `Cc1cc(C)c(N2CCC(O)C2=O)cc1NS(=O)(=O)C(F)(F)F` (stereo not drawn) [Compound 14], the “Plant response rating (0 to 100 scale), Goosegrass” value (shortened to “Plant response rating … Goosegrass”) in experiment [1] (31 g ai/ha Preemergence) turned out to be 90; in experiment [1] (125 g ai/ha Preemergence), 100. The “Plant response rating (0 to 100 scale), Soybean” value (“Plant response rating … Soybean” below) in experiment [2] (31 g ai/ha Preemergence) and in experiment [2] (125 g ai/ha Preemergence) was 100 each time. Further, in experiment [3], the “Galium plant response rating” value came out at 100. Besides, the “Plant response rating (0 to 100 scale), Galium” value in experiment [3] came out at 100. Also, the “Plant response rating (0 to 100 scale), Blackgrass” value (shortened to “Plant response rating … Blackgrass”) in experiment [4] amounted to 70.
For `COC(=O)N(c1cc(N2CCC(OC3CC3)C2=O)c(C)cc1C)S(=O)(=O)C(F)(F)F` (stereo not drawn) [Compound 16], the “Plant response rating … Goosegrass” value in experiment [1] (31 g ai/ha Preemergence) and in experiment [1] (125 g ai/ha Preemergence) was 0 each time. Further, the “Plant response rating … Soybean” value in experiment [2] (31 g ai/ha Preemergence) and in experiment [2] (125 g ai/ha Preemergence) was 20 in each case. Besides, in experiment [3], the “Galium plant response rating” value is on record as 50. In addition, in experiment [3], the “Plant response rating (0 to 100 scale), Galium” value amounted to 50. In addition, the “Plant response rating … Blackgrass” value in experiment [4] was found to be 0.
As to `Cc1cc(C)c(N(C(=O)OC(C)C)S(=O)(=O)C(F)(F)F)cc1N1CCC(OC2CC2)C1=O` (stereo not drawn) [Compound 18], the “Plant response rating … Goosegrass” value in experiment [1] (31 g ai/ha Preemergence) and in experiment [1] (125 g ai/ha Preemergence) was 0 in each case. The “Plant response rating … Soybean” value came to 0 in experiment [2] (31 g ai/ha Preemergence) and 30 in experiment [2] (125 g ai/ha Preemergence). Also, the “Galium plant response rating” value in experiment [3] is reported as 10. In experiment [3], the “Plant response rating (0 to 100 scale), Galium” value turned out to be 70. In experiment [4], the “Plant response rating … Blackgrass” value was 0.
For `CCOC(=O)N(c1cc(N2CCC(OC3CC3)C2=O)c(C)cc1C)S(=O)(=O)C(F)(F)F` (stereo not drawn) [Compound 19], the figures for the “Plant response rating … Goosegrass” value in experiment [1] (31 g ai/ha Preemergence) and in experiment [1] (125 g ai/ha Preemergence) were 0 and 70, respectively. For the same compound, the “Plant response rating … Soybean” value in experiment [2] (31 g ai/ha Preemergence) is 30; in experiment [2] (125 g ai/ha Preemergence), 90. The “Galium plant response rating” value in experiment [3] came to 30. For the same compound, the “Plant response rating (0 to 100 scale), Galium” value in experiment [3] came to 90. Besides, the “Plant response rating … Blackgrass” value in experiment [4] turned out to be 40.
For the compound `CCCC(=O)OCN(c1cc(N2CCC(OC3CC3)C2=O)c(C)cc1C)S(=O)(=O)C(F)(F)F` (stereo not drawn) [Compound 20], the “Plant response rating … Goosegrass” value in experiment [1] (31 g ai/ha Preemergence) and in experiment [1] (125 g ai/ha Preemergence) was 100 in each case. The “Plant response rating … Soybean” value came out at 70 in experiment [2] (31 g ai/ha Preemergence) and 90 in experiment [2] (125 g ai/ha Preemergence). In addition, in experiment [3], the “Galium plant response rating” value is on record as 90. The “Plant response rating (0 to 100 scale), Galium” value in experiment [3] was 100. Moreover, the “Plant response rating … Blackgrass” value in experiment [4] came to 90.
As for `Cc1cc(C)c(N2CCC(OCC3CC3)C2=O)cc1NS(=O)(=O)C(F)(F)F` (stereo not drawn) [Compound 22], the “Plant response rating … Goosegrass” value in experiment [1] (31 g ai/ha Preemergence) and in experiment [1] (125 g ai/ha Preemergence) was 100 in each case. For the same compound, the “Plant response rating … Soybean” value in experiment [2] (31 g ai/ha Preemergence) is on record as 80; in experiment [2] (125 g ai/ha Preemergence), 90. The “Galium plant response rating” value in experiment [3] came out at 100. In experiment [3], the “Plant response rating (0 to 100 scale), Galium” value came out at 100. In addition, the “Plant response rating … Blackgrass” value in experiment [4] stood at 90.
Consider `Cc1c(N2CCC(OC3CC3)C2=O)cc(N(COC(=O)C(C)(C)C)S(=O)(=O)C(F)(F)F)c(C)c1F` (stereo not drawn) [Compound 23], for which the “Plant response rating … Goosegrass” value in experiment [1] (31 g ai/ha Preemergence) was 70; in experiment [1] (125 g ai/ha Preemergence) it was 100. Further, the figures for the “Plant response rating … Soybean” value in experiment [2] (31 g ai/ha Preemergence) and in experiment [2] (125 g ai/ha Preemergence) were 30 and 40, respectively. Besides, the “Galium plant response rating” value in experiment [3] turned out to be 90. The “Plant response rating (0 to 100 scale), Galium” value in experiment [3] was 100. Further, the “Plant response rating … Blackgrass” value in experiment [4] was 50.
`Cc1c(NS(=O)(=O)C(F)(F)F)cc(N2CCC(OC3CCC3)C2=O)c(C)c1F` (stereo not drawn) [Compound 25]: the “Plant response rating … Goosegrass” value in experiment [1] (31 g ai/ha Preemergence) is 90; in experiment [1] (125 g ai/ha Preemergence), 100. Moreover, the “Plant response rating … Soybean” value in experiment [2] (31 g ai/ha Preemergence) worked out at 80; in experiment [2] (125 g ai/ha Preemergence), 90. The “Galium plant response rating” value in experiment [3] is recorded as 100. Further, the “Plant response rating (0 to 100 scale), Galium” value in experiment [3] stood at 100. Besides, the “Plant response rating … Blackgrass” value in experiment [4] came to 90.
With `Cc1c(N2CCC(OC3CCC3)C2=O)cc(N(COC(=O)C(C)(C)C)S(=O)(=O)C(F)(F)F)c(C)c1F` (stereo not drawn) [Compound 28], the “Plant response rating … Goosegrass” value in experiment [1] (31 g ai/ha Preemergence) came out at 70; in experiment [1] (125 g ai/ha Preemergence), 100. Moreover, the “Plant response rating … Soybean” value in experiment [2] (31 g ai/ha Preemergence) was determined as 20; in experiment [2] (125 g ai/ha Preemergence) it was 80. In experiment [3], the “Galium plant response rating” value came to 90. In addition, the “Plant response rating (0 to 100 scale), Galium” value in experiment [3] was determined as 100. In addition, the “Plant response rating … Blackgrass” value in experiment [4] was found to be 70.
With `Cc1cc(Cl)c(N(COC(=O)C(C)(C)C)S(=O)(=O)C(F)(F)F)cc1N1CCC(OC2CC2)C1=O` (stereo not drawn) [Compound 33], the figures for the “Plant response rating … Goosegrass” value in experiment [1] (31 g ai/ha Preemergence) and in experiment [1] (125 g ai/ha Preemergence) were 90 and 100, respectively. Moreover, the entries for the “Plant response rating … Soybean” value in experiment [2] (31 g ai/ha Preemergence) and in experiment [2] (125 g ai/ha Preemergence) were 0 and 60, respectively. In addition, in experiment [3], the “Galium plant response rating” value amounted to 100. Moreover, the “Plant response rating (0 to 100 scale), Galium” value in experiment [3] is 100. Besides, the “Plant response rating … Blackgrass” value in experiment [4] is reported as 60.
In the case of `Cc1c(NS(=O)(=O)C(F)(F)F)cc(N2CCCC(OC3CCC3)C2=O)c(C)c1F` (stereo not drawn) [Compound 36], the “Plant response rating … Goosegrass” value in experiment [1] (31 g ai/ha Preemergence) is on record as 90; in experiment [1] (125 g ai/ha Preemergence) it was 100. Further, the “Plant response rating … Soybean” value in experiment [2] (31 g ai/ha Preemergence) and in experiment [2] (125 g ai/ha Preemergence) was 90 throughout. Also, the “Galium plant response rating” value in experiment [3] was found to be 60. Further, the “Plant response rating (0 to 100 scale), Galium” value in experiment [3] is given as 80. Moreover, the “Plant response rating … Blackgrass” value in experiment [4] worked out at 30.
For the compound `Cc1c(N2CCCC(OC3CC3)C2=O)cc(N(COC(=O)C(C)(C)C)S(=O)(=O)C(F)(F)F)c(C)c1F` (stereo not drawn) [Compound 37], the results for the “Plant response rating … Goosegrass” value in experiment [1] (31 g ai/ha Preemergence) and in experiment [1] (125 g ai/ha Preemergence) were 50 and 100, respectively. The “Plant response rating … Soybean” value is listed as 0 in experiment [2] (31 g ai/ha Preemergence) and 30 in experiment [2] (125 g ai/ha Preemergence). Besides, the “Galium plant response rating” value in experiment [3] is 60. In addition, the “Plant response rating (0 to 100 scale), Galium” value in experiment [3] was found to be 90. Further, the “Plant response rating … Blackgrass” value in experiment [4] turned out to be 60.
Take `CC(=O)N(c1cc(N2CCC(OC3CC3)C2=O)c(C)cc1Cl)S(=O)(=O)C(F)(F)F` (stereo not drawn) [Compound 38]: the “Plant response rating … Goosegrass” value in experiment [1] (31 g ai/ha Preemergence) and in experiment [1] (125 g ai/ha Preemergence) was 100 throughout. In addition, the “Plant response rating … Soybean” value in experiment [2] (31 g ai/ha Preemergence) is reported as 80; in experiment [2] (125 g ai/ha Preemergence) it was 90. The “Galium plant response rating” value in experiment [3] is 90. Besides, the “Plant response rating (0 to 100 scale), Galium” value in experiment [3] worked out at 100. Further, the “Plant response rating … Blackgrass” value in experiment [4] turned out to be 70.
Consider `Cc1c(N2CCCC(OC3CCC3)C2=O)cc(N(COC(=O)C(C)(C)C)S(=O)(=O)C(F)(F)F)c(C)c1F` (stereo not drawn) [Compound 39], for which the “Plant response rating … Goosegrass” value is listed as 10 in experiment [1] (31 g ai/ha Preemergence) and 60 in experiment [1] (125 g ai/ha Preemergence). For the same compound, the “Plant response rating … Soybean” value in experiment [2] (31 g ai/ha Preemergence) came to 0; in experiment [2] (125 g ai/ha Preemergence), 60. In addition, the “Galium plant response rating” value in experiment [3] was found to be 80. In experiment [3], the “Plant response rating (0 to 100 scale), Galium” value is given as 90. For the same compound, the “Plant response rating … Blackgrass” value in experiment [4] is given as 10.
Turning to `COC(=O)N(c1cc(N2CCC(OC3CC3)C2=O)c(C)cc1Cl)S(=O)(=O)C(F)(F)F` (stereo not drawn) [Compound 40], the “Plant response rating … Goosegrass” value in experiment [1] (31 g ai/ha Preemergence) and in experiment [1] (125 g ai/ha Preemergence) was 100 throughout. Further, the entries for the “Plant response rating … Soybean” value in experiment [2] (31 g ai/ha Preemergence) and in experiment [2] (125 g ai/ha Preemergence) were 70 and 90, respectively. Also, the “Galium plant response rating” value in experiment [3] turned out to be 80. The “Plant response rating (0 to 100 scale), Galium” value in experiment [3] was 100. For the same compound, the “Plant response rating … Blackgrass” value in experiment [4] turned out to be 60.
